Measurements reported in patent publication US20210154162A1, “DRUG AND PHARMACEUTICAL COMPOSITION CONTAINING TRANSPORT PROTEIN INHIBITOR, AND USE” (Institute of Basic Medical Sciences Chinese Academy of …, priority 2018, published 2021).

Assays:
PAT4 and SLC7A8 [1] = experiment: PAT4 and SLC7A8 expression in CD8+ T cells from breast cancer patients (real-time PCR); format: cell-based, human; conditions: Kyn/DMF (20 μM) or Kyn/CH (50 μM), 48 h
Description: (8) CD8^+ T cells from breast cancer patients were treated with PBS, Kyn ([…] (20 μM) or Kyn/CH (50 μM) for 48 h. The expression of PAT4 and SLC7A8 was determined by real-time PCR. The determination results were as shown in FIG. 7I.

PD-1 [2] = experiment: PD-1 expression in human CD8+ T cells treated with Kyn and AhR inhibitors (flow cytometry); format: cell-based; conditions: 48 h
Description: (4) CD8^+ T cells isolated from PBMCs of patients with breast cancer or lung cancer were activated by anti-CD3/CD28 beads and treated with PBS, Kyn (200 μM) or Kyn/DMF (20 μM) for 48 h. The expression of PD-1 was determined by flow cytometry.
(5) CD8^+ T cells isolated from patients with breast cancer or lung cancer were treated with DMF (20 μM) for 48 h. PD-1 expression was determined by flow cytometry (n=6).

B16 melanoma = experiment: B16 melanoma-bearing C57BL/6 mice treated with Kyn, DMF or Kyn+DMF; format: in vivo, mouse
Description: (9) C57BL/6 mice with 5×5 mm B16 melanoma were treated with PBS, Kyn (50 μg/mouse, i.p., once every two days), DMF (5 μg/mouse, o.t., once every day) or Kyn+DMF for 6 days. PD-1 expression in CD8^+ T cells isolated from tumors was determined by flow cytometry (n=5). (14) The experimental steps were the same as those of step (9), except that the tumors were weighed. The weighing results were as shown in FIG. 6P. *p<0.05, **p<0.01; #p<0.05, ##p<0.01, as compared with CTL group. The data represented mean±SEM.

OVA-B16 melanoma = OVA-B16 melanoma mice, adoptive OT-1 CD8+ T cell transfer plus DMF or anti-PD-1 antibody; format: in vivo; conditions: anti-PD-1 antibody 250 μg/day or DMF 5 μg/mouse twice every day
Description: (13) C57BL/6 mice with 5×5 mm OVA-B16 melanoma were adoptively transferred with or without OT-1 CD8^+ T cells (4×10^6 cells/mouse) once per three days for three times. At the same time, these mice were treated with PBS, DMF (5 μg/mouse, o.t., twice every day) or anti-PD-1 neutralizing antibody (250 μg/day, once every two days, twice) for 20 days. The tumor growth was measured (left) and the long-term survival rate was analyzed (right).

PAT4 and SLC7A8 [3] = experiment: PAT4 and SLC7A8 expression in activated CD8+ T cells (real-time PCR, immunostaining); format: cell-based, mouse
Description: (2) Activated CD8^+ T cells were treated with PBS or Kyn (200 μM) for 24 h. The expression of PAT4 and SLC7A8 was determined by real-time PCR (left) and immunostaining (right). Bar, […].
(6) The mRNA expression of PAT4 and SLC7A8 was determined in activated CD8^+ T cells treated with PBS, Kyn, Kyn/CH-223191 (10 μM) or Kyn/DMF (20 μM) for 48 h.

PD-1 [4] = experiment: OVA-B16 melanoma-bearing mice with adoptively transferred CFSE-labeled OT-1 T cells, PD-1 expression; format: in vivo, mouse; conditions: DMF 5 μg/mouse, 6 days; CFSE+ T cells from tumor mass, spleen or lymph nodes
Description: (6) C57BL/6 mice with 5×5 mm OVA-B16 melanoma were adoptively transferred with CFSE-labeled OT-1 CD8^+ T cells (4×10^6 cells/mouse, once every three days) on three occasions. At the same time, some mice were i.p. injected with Kyn (50 μg/mouse, once every two days) for three times. On Day 7 after transferring, CFSE^+CD8^+ T cells were isolated from tumor for flow cytometric analysis of PD-1 expression.
(8) The experimental steps were the same as those of step (7), except that C57BL/6 mice were treated with Kyn, DMF (5 μg/mouse, o.t., twice every day) or Kyn+DMF for 6 days. CFSE^+CD8^+ T cells from tumor were isolated for flow cytometric analysis of PD-1 expression.

PD-1 [5] = experiment: ID8 ovarian cancer and H22 hepatocarcinoma ascites peritoneal tumor models; format: in vivo, mouse; conditions: DMF
Description: (10) C57BL/6 mice were intraperitoneally injected with 1×10^6 ID8 ovarian cancer cells. After 10 days, mice were intraperitoneally administered with PBS, Kyn, DMF or Kyn+DMF for 6 days. CD8^+ T cells from ascites were isolated and PD-1 expression was determined by flow cytometry (n=5).

AhR = experiment: PD-1 expression in activated CD8+ T cells treated with Kyn plus AhR inhibitor (flow cytometry); format: cell-based, mouse; conditions: Kyn plus inhibitor (DMF 10 or 20 μM), 72 h
Description: (4) CD8^+ T cells activated by anti-CD3/CD28 beads were treated with PBS, Kyn or Kyn/DMF (10 or 20 μM) for 72 h. The expression of PD-1 was determined by flow cytometry.

[6] = target: T1, tryptophan transporter SLC1A5 (Mus musculus, UniProt P51912); experiment: Effect of GPNA on the uptake of tryptophan by tumor cells (ELISA of lysates); format: cell-based; conditions: OVA-B16 cells, 50 ng/mL IFN-γ + 10 μM GPNA, 24 h
T1 construct: endogenous in cells; host or cells: mouse OVA-B16 melanoma cells
T1 sequence (P51912 1-553): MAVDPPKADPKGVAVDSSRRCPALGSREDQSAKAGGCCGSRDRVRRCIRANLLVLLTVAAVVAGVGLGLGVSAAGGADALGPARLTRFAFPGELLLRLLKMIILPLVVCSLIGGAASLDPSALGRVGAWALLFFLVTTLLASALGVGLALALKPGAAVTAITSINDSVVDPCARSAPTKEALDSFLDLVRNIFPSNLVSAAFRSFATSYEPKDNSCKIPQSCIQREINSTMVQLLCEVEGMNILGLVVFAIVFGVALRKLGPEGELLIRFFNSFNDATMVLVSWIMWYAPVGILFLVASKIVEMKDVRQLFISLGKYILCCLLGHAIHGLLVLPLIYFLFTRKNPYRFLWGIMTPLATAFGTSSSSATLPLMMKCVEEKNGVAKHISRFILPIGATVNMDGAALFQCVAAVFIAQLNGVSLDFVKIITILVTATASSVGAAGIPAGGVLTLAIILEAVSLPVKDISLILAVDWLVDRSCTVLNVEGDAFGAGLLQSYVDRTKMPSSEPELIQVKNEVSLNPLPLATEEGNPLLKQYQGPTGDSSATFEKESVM
Description: Mouse OVA-B16 cells were cultured in RPMI-1640 culture medium in vitro and were group and treated as follows.
(§1) Control group 1 (PBS): culture medium+PBS;
Control group 2 (GPNA): culture medium+10 μM GPNA;
Experimental group 3 (IFN-γ): culture medium+50 ng/mL IFN-γ;
Experimental group 4 (IFN-γ+GPNA): culture medium+50 ng/mL IFN-γ+10 μM GPNA;
The cells in each group were collected after 24 h and ultrasonically broken, the concentrations of tryptophan in the lysates were determined by ELISA, and BCA protein assay was carried out at the same time.

SLC1A5 [7] = target: T2, SLC1A5 (Mus musculus, UniProt P51912); experiment: Tryptophan levels in B16 TRC lysates (ELISA); format: cell-based
T2 construct: endogenous in cells; host or cells: B16 tumor-repopulating cells (TRCs)
T2 sequence (P51912 1-553): T1 sequence (P51912 1-553)
Description: (8) Tryptophan levels in cell lysates were determined by ELISA in scramble- and shSLC1A5-(Sh1 or Sh2)-B16 TRCs in the presence or absence of IFN-γ for 24 h.

OVA-B16 TRCs = experiment: OVA-B16 TRC / activated OT-1 T cell co-culture with IDO1 or SLC1A5 blockade (flow cytometry); format: cell-based, mouse; conditions: for expression of IFN-γ, TNF-α and CD107a: T cells in co-culture with OVA-B16 TRCs; for PD-1 expression on T cells: co-culture with OVA-B16 TRCs, 24 h; for TRC apoptosis: co-culture with activated OT-1 T cells, 4 h
Description: (7) Scramble- or shIDO1-(Sh1 or Sh2)-OVA B16 TRCs were co-cultured with anti-CD3/CD28 bead-activated OT-1 T cells. After 4 h or 24 h, TRC apoptosis (as shown in FIG. 2G) or PD-1 expression on T cells (as shown in FIG. 2H) was analyzed by flow cytometry. The analysis results were as shown in FIG. 2G and FIG. 2H, respectively.
(9) Scramble- and shSLC1A5-(Sh1 or Sh2)-OVA B16 TRCs were co-cultured with anti-CD3/CD28 bead-activated OT-1 T cells. After 4 h or 24 h, TRC apoptosis (as shown in FIG. 2J) or PD-1 expression (as shown in FIG. 2K) was analyzed by flow cytometry. The analysis results were as shown in FIG. 2J and FIG. 2K, respectively.

PD-1 [8] = experiment: Effect of GPNA on PD-1 expression in specific OT-1 CD8+ T cells co-cultured with 3D-cultured OVA-B16 cells; format: cell-based, mouse; conditions: 3D-cultured OVA-B16 cells treated 12 h with 10 μM GPNA, co-culture 1:10, 4 h
Description: 3D-cultured OVA-B16 cells were grouped and treated with drug as follows.
as §1
Experimental group 2 (GPNA): culture medium+10 μM GPNA;
After 12 h of treatment, the cells were co-cultured with OT-1 CD8^+ T cells that had been activated for 48 h at a ratio of 1:10, and PD-1 expression in CD8^+ T cells was determined by flow cytometry after 4 h.

IDO1 = IDO1 expression in TRCs upon IFN-γ; format: cell-based
PD-L1 = PD-L1 expression on TRCs upon IFN-γ; format: cell-based, mouse
B16 TRCs = experiment: Kyn release by IFN-γ-treated tumor cells (ELISA of supernatants); format: cell-based, mouse; conditions: IFN-γ 10 ng/ml, 24 h
Description: (3) OVA-B16 cells grown in culture flask or OVA-B16 TRCs were treated with IFN-γ (10 ng/ml) for 24 h. Kyn levels in the supernatants were determined by ELISA.

SLC1A5 [9] = experiment: SLC1A5 expression in TRCs upon IFN-γ; format: cell-based; conditions: IFN-γ treatment, mRNA and protein levels
PD-1 [10] = experiment: PD-1 expression in patients' peripheral blood T cells treated with supernatants of IFN-γ-treated CD45- tumor cells; format: cell-based, human; conditions: CD45- tumor cells treated with IFN-γ with or without 1-MT 24 h; supernatants on T cells 24 h
Description: Moreover, very high PD-1 expression was found in tumor-infiltrating CD8^+ T cells of breast and colon cancer patients (FIG. 7A). […] It was worth noting that Kyn levels were strongly correlated with PD-1 expression in breast and colon cancer patients, but not in healthy people (FIG. 7C). To clarify the cellular source of the Kyn production, CD45^+ immune cells and CD45^− tumor cells isolated from breast tumor tissues (n=10) and colon tumor tissues (n=14) of patients were analyzed. IDO1 expression as well as Kyn levels were dominantly high in CD45^− cells rather than CD45^+ cells. Then, the inventors treated CD45^− tumor cells with IFN-γ in the presence or absence of 1-MT for 24 hours in vitro. The supernatants were used to treat peripheral blood T cells of patients for 24 hours.

COc1ccc(-c2cc(=O)c3ccccc3o2)cc1OC [DMF, 3′,4′-dimethoxyflavone]
Kyn-induced upregulation of SLC7A8 and PAT4 (PAT4 and SLC7A8 [1]): blocked
Kyn-induced PD-1 upregulation (PD-1 [2]; human CD8+ T cells, Kyn plus inhibitor (DMF 20 μM)): inhibited
PD-1 expression (PD-1 [2]; patients' CD8+ T cells, DMF alone 20 μM): directly downregulate PD-1 expression
accelerated tumor growth seen with Kyn-treatment (B16 melanoma; Kyn+DMF): reversed
Kyn-induced PD-1 upregulation in CD8+ T cells isolated from tumor, spleen or lymph nodes (B16 melanoma; Kyn+DMF (5 μg/mouse), 6 days): blocked
therapeutic effect of adoptively transferred OVA-specific CD8+ T cells (tumor growth, survival) (OVA-B16 melanoma): equal treatment efficiency
Kyn-induced upregulation of SLC7A8 and PAT4 (PAT4 and SLC7A8 [3]; activated CD8+ T cells, Kyn/CH-223191 (10 μM) or Kyn/DMF (20 μM), 48 h): effectively inhibiting
Kyn-triggered upregulation of PD-1 expression in tumor-specific CD8+ T cells (PD-1 [4]): abrogated
expression pattern of PD-1, IFN-γ and TNF-α (PD-1 [5]): reversed
Kyn-dependent upsurge of PD-1 (AhR): thwarted

N[C@@H](CCC(=O)Nc1ccc([N+](=O)[O-])cc1)C(=O)O [GPNA, L-γ-Glutamyl-p-nitroanilide]
uptake of tryptophan by tumor cells [6]: significantly reduced
intracellular levels of tryptophan in TRCs (SLC1A5 [7]): decreased
expression of IFN-γ, TNF-α and CD107a (OVA-B16 TRCs): upregulation
PD-1 expression on T cells (OVA-B16 TRCs): downregulation
TRC apoptosis (OVA-B16 TRCs): more TRC apoptosis
PD-1 expression in specific OT-1 CD8+ T cells (PD-1 [8]): significantly inhibit

IFN-γ: recombinant IFN-γ purchased from R & D Systems
IDO1 expression (IDO1): further upregulated
expression of PD-L1 (PD-L1): upregulated
Kyn levels in the supernatants (B16 TRCs): release high levels of Kyn
expression of PAT4 and SLC7A8 (PAT4 and SLC7A8 [3]; CD8+ T cells, IFN-γ treatment): did not affect
expression of SLC1A5 (SLC1A5 [9]): further augmented

Cn1cc(C[C@@H](N)C(=O)O)c2ccccc21 [1-MT]
PD-1 upregulation in CD8+ T cells by supernatants (PD-1 [10]): blocked
expression of IFN-γ, TNF-α and CD107a (OVA-B16 TRCs): upregulation
PD-1 expression on T cells (OVA-B16 TRCs): downregulation
TRC apoptosis (OVA-B16 TRCs): more TRC apoptosis
